Laboratory results published in article PMC10949812, “Unveiling CXCR2 as a promising therapeutic target in renal cell carcinoma: exploring the immunotherapeutic paradigm shift through its inhibition by RCT001” (Journal of Experimental & Clinical Cancer Research : CR, 2024).

Columns and labels:
CXCR2 [1] = biological target: T1, CXCR2 (Homo sapiens, UniProt P25025); assay: fluorescent conformational probe (λmax shift) on recombinant reconstituted CXCR2, dose response and kinetics; format: binding
T1 construct: recombinant CXCR2 reconstituted in detergent buffer containing lipids
T1 sequence (P25025 1-360): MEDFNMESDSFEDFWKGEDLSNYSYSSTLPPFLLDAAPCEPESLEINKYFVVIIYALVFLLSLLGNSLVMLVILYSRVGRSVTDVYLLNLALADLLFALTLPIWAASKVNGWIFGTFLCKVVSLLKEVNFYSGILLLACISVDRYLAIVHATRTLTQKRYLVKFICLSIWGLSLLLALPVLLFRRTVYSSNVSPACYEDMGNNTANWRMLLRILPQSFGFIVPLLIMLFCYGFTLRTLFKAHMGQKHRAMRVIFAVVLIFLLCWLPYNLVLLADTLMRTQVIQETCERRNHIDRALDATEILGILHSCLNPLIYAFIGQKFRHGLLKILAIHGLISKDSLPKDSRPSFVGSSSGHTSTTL

CXCR2 [2] = biological target: T1, CXCR2; assay: fluorescent conformational probe (λmax shift) kinetics on recombinant CXCR2, SX-682 […] after CXCL8 […]; format: biochemical

Structure (SMILES) | EC50 (CXCR2 [1]) | fluorescent conformational probe (λmax shift) kinetics on recombinant CXCR2, SX- (CXCR2 [2])
O=C(Nc1cc(Cl)cc(Cl)c1)Nc1nc2ccc([N+](=O)[O-])cc2s1 [RCT001, 1-(3,5-dichlorophenyl)-3-(6-nitrobenzo[d]thiazol-2-yl) urea] | 42.7 nM | –
O=C(Nc1ccc(F)cc1)c1cnc(SCc2cc(OC(F)(F)F)ccc2B(O)O)nc1 [SX-682] | – | Unlike RCT001, SX-682 inhibited CXCL8-induced pocket opening of CXCR2 (Fig. S3c), firmly establishing it as a standard CXCR2 antagonist
